Like-named read-outs stand apart in the source and are kept apart here.
System: 134 cancer cell lines
Experiment: Cell viability assay (ATPlite, 72 hours), IC50 on cancer cell line panel

Work on `CN1CCN(c2ccc(C(=O)Nc3n[nH]c4ccc(Cc5cc(F)cc(F)c5)cc34)c(NC3CCOCC3)c2)CC1` [entrectinib] yielded an IC50 (HEC-6, read-out: IC50 in cell proliferation assay, HEC-6 cell line (EGFR p.A289V)) of 6.83 µM, an IC50 (Homo sapiens, 769-P, read-out: IC50 in cell proliferation assay, cell line 769-P) of 6.69 µM and an IC50 (Homo sapiens, 786-0, read-out: IC50 in cell proliferation assay, cell line 786-O) of 5.12 µM. The IC50 (Homo sapiens, A 172, read-out: IC50 in cell proliferation assay, cell line A-172) was 4.96 µM, the IC50 (Homo sapiens, A204, read-out: IC50 in cell proliferation assay, cell line A-204) was 5.98 µM and the IC50 (Homo sapiens, A498, read-out: IC50 in cell proliferation assay, cell line A-498) was 7.97 µM. The IC50 (Homo sapiens, A549, read-out: IC50 in cell proliferation assay, cell line A-549) was 8.78 µM, the IC50 (Homo sapiens, A704, read-out: IC50 in cell proliferation assay, cell line A-704) was 6.87 µM and the IC50 (Homo sapiens, A-375, read-out: IC50 in cell proliferation assay, cell line A-375 (BRAF p.V600E)) was 5.84 µM. The IC50 (Homo sapiens, A-427, read-out: IC50 in cell proliferation assay, cell line A-427) was 3.49 µM, the IC50 (Homo sapiens, ACHN, read-out: IC50 in cell proliferation assay, cell line ACHN) was 5.79 µM and the IC50 (Homo sapiens, AN3-CA, read-out: IC50 in cell proliferation assay, cell line AN3-CA (FGFR2 p.N549K)) was 3.78 µM. It also gave an IC50 (Homo sapiens, ASPC1, read-out: IC50 in cell proliferation assay, cell line AsPC-1) of 7.99 µM, an IC50 (Homo sapiens, AU565, read-out: IC50 in cell proliferation assay, cell line AU565 (ERBB2 amplification)) of 8.63 µM and an IC50 (Homo sapiens, BT-20, read-out: IC50 in cell proliferation assay, cell line BT-20) of 10.7 µM. The IC50 (Homo sapiens, BT-474, read-out: IC50 in cell proliferation assay, cell line BT-474 (ERBB2 amplification)) was 6.15 µM, the IC50 (Homo sapiens, BT-549, read-out: IC50 in cell proliferation assay, cell line BT-549) was 7.41 µM and the IC50 (Homo sapiens, BXPC-3, read-out: IC50 in cell proliferation assay, cell line BxPC-3) was 6.09 µM. The IC50 (Homo sapiens, C-33-A, read-out: IC50 in cell proliferation assay, cell line C-33 A) was 5.23 µM, the IC50 (Homo sapiens, CAL-27, read-out: IC50 in cell proliferation assay, cell line CAL-27) was 5.15 µM and the IC50 (Homo sapiens, CCF-STTG1, read-out: IC50 in cell proliferation assay, cell line CCF-STTG1) was 10.7 µM. The IC50 (Homo sapiens, CCRF-CEM, read-out: IC50 in cell proliferation assay, cell line CCRF-CEM) was 9.03 µM, the IC50 (Homo sapiens, COLO 205, read-out: IC50 in cell proliferation assay, cell line COLO 205 (BRAF p.V600E)) was 7.72 µM and the IC50 (Homo sapiens, COLO-829, read-out: IC50 in cell proliferation assay, cell line COLO 829 (BRAF p.V600E)) was 8.95 µM. It also gave an IC50 (Homo sapiens, DLD-1, read-out: IC50 in cell proliferation assay, cell line DLD-1) of 10.5 µM, an IC50 (Homo sapiens, DU-4475, read-out: IC50 in cell proliferation assay, cell line DU4475 (BRAF p.V600E)) of 8.22 µM and an IC50 (Homo sapiens, Daoy, read-out: IC50 in cell proliferation assay, cell line Daoy) of 5.1 µM. For the same compound, the IC50 (Homo sapiens, DoTc2-4510, read-out: IC50 in cell proliferation assay, cell line DoTc2 4510) was 4.69 µM, the IC50 (Homo sapiens, EOL1, read-out: IC50 in cell proliferation assay, cell line EoL-1 (FIP1L1-PDGFRA)) was 0.512 µM and the IC50 (Homo sapiens, FaDu, read-out: IC50 in cell proliferation assay, cell line FaDu) was 5.64 µM. The IC50 (Homo sapiens, G-361, read-out: IC50 in cell proliferation assay, cell line G-361 (BRAF p.V600E)) was 4.67 µM, the IC50 (Homo sapiens, HCC827, read-out: IC50 in cell proliferation assay, cell line HCC827 (EGFR exon19del)) was 2.98 µM and the IC50 (Homo sapiens, HCC4006, read-out: IC50 in cell proliferation assay, cell line HCC4006 (EGFR exon19del)) was 4.96 µM. The IC50 (Homo sapiens, HCT-15, read-out: IC50 in cell proliferation assay, cell line HCT 15) was 7.64 µM, the IC50 (Homo sapiens, HCT-116, read-out: IC50 in cell proliferation assay, cell line HCT 116) was 4.66 µM and the IC50 (Homo sapiens, HEC-1, read-out: IC50 in cell proliferation assay, HEC-1 cell line) was 3.73 µM. The IC50 (Homo sapiens, HEC-1B, read-out: IC50 in cell proliferation assay, HEC-1-B cell line (EGFR p.A864V)) was 2.24 µM, the IC50 (Homo sapiens, HL-60, read-out: IC50 in cell proliferation assay, HL-60 cell line) was 5.68 µM and the IC50 (Homo sapiens, HT, read-out: IC50 in cell proliferation assay, HT cell line) was 12 µM. The IC50 (Homo sapiens, HT-1080, read-out: IC50 in cell proliferation assay, HT-1080 cell line) was 7.36 µM, the IC50 (Homo sapiens, Hs746T, read-out: IC50 in cell proliferation assay, Hs 746.T cell line (MET exon14skip + amplification)) was 10.9 µM and the IC50 (Homo sapiens, Hs-578T, read-out: IC50 in cell proliferation assay, Hs 578T cell line) was 7.05 µM. The IC50 (Homo sapiens, HuTu80, read-out: IC50 in cell proliferation assay, HuTu 80 cell line) was 3.57 µM, the IC50 (Homo sapiens, J82, read-out: IC50 in cell proliferation assay, J82 cell line) was 7.16 µM and the IC50 (Homo sapiens, Jurkat E6.1, read-out: IC50 in cell proliferation assay, Jurkat E6.1 cell line) was 8.24 µM. The IC50 (Homo sapiens, K562, read-out: IC50 in cell proliferation assay, K-562 cell line) was 5.82 µM, the IC50 (Homo sapiens, KATO III, read-out: IC50 in cell proliferation assay, KATO III cell line (FGFR2 amplification)) was 1.43 µM and the IC50 (Homo sapiens, KG-1, read-out: IC50 in cell proliferation assay, KG-1 cell line (FGFR1OP2-FGFR1)) was 1.53 µM. The IC50 (Homo sapiens, KLE, read-out: IC50 in cell proliferation assay, KLE cell line) was 4.33 µM, the IC50 (Homo sapiens, KMS-11, read-out: IC50 in cell proliferation assay, KMS-11 cell line (FGFR3 p.Y373C)) was 4.82 µM and the IC50 (Homo sapiens, KU812, read-out: IC50 in cell proliferation assay, Ku812 cell line) was 4.72 µM. For the same compound, the IC50 (Homo sapiens, Kasumi 1, read-out: IC50 in cell proliferation assay, Kasumi-1 cell line (KIT p.N822K)) was 3.68 µM, the IC50 (Homo sapiens, LC-2-ad, read-out: IC50 in cell proliferation assay, LC-2/ad cell line (CCDC6-RET)) was 1.81 µM and the IC50 (Homo sapiens, LNCaP-Clone-FGC, read-out: IC50 in cell proliferation assay, LNCaP clone FGC cell line) was 10.9 µM. The IC50 (Homo sapiens, LS174T, read-out: IC50 in cell proliferation assay, LS174T cell line) was 4.9 µM, the IC50 (Homo sapiens, LS-411N, read-out: IC50 in cell proliferation assay, LS411N cell line (BRAF p.V600E)) was 9.55 µM and the IC50 (Homo sapiens, LoVo, read-out: IC50 in cell proliferation assay, LoVo cell line) was 9.52 µM. The IC50 (Homo sapiens, MCF7, read-out: IC50 in cell proliferation assay, MCF-7 cell line) was 3.83 µM, the IC50 (Homo sapiens, MDA-MB-231, read-out: IC50 in cell proliferation assay, MDA-MB-231 cell line) was 4.59 µM and the IC50 (Homo sapiens, MDA-MB-453, read-out: IC50 in cell proliferation assay, MDA-MB-453 cell line) was 11.5 µM. For the same compound, the IC50 (Homo sapiens, MDA-MB-468, read-out: IC50 in cell proliferation assay, MDA-MB-468 cell line) was 11 µM, the IC50 (Homo sapiens, MG-63, read-out: IC50 in cell proliferation assay, MG-63 cell line) was 3.8 µM and the IC50 (Homo sapiens, MIA PaCa-2, read-out: IC50 in cell proliferation assay, MIA PaCa-2 cell line) was 5.16 µM. It also gave an IC50 (Homo sapiens, MKN-45, read-out: IC50 in cell proliferation assay, MKN45 cell line (MET amplification)) of 11.8 µM, an IC50 (Homo sapiens, MOLM-13, read-out: IC50 in cell proliferation assay, MOLM-13 cell line (FLT3 ITD)) of 0.214 µM and an IC50 (Homo sapiens, MOLT-4, read-out: IC50 in cell proliferation assay, MOLT-4 cell line) of 11.3 µM. The IC50 (Homo sapiens, MV4-11, read-out: IC50 in cell proliferation assay, MV4-11 cell line (FLT3 ITD)) was 0.281 µM.

Reference: article PMC9516332 (Frontiers in Oncology, 2022)
